Test results: ChEMBL document CHEMBL1137279, “Synthesis of N1-arylidene-N2-quinolyl- and N2-acrydinylhydrazones as potent antimalarial agents active against CQ-resistant P. falciparum strains” (Bioorg Med Chem Lett, 2006)

Tests used:
Plasmodium falciparum [1] = assay: Antimalarial activity against chloroquine-resistant Plasmodium falciparum W2; assay type: functional, organism-based
Plasmodium falciparum [2] = assay: Antimalarial activity against chloroquine-sensitive Plasmodium falciparum D10; assay type: functional, organism-based
[3] = Cytotoxicity against mouse WEHI cell line by MTT assay; assay type: cell-based; conditions: WEHI cells, read-out: ED50 (the source's name)
Plasmodium falciparum [4] = assay: Antimalarial activity against chloroquine-sensitive Plasmodium falciparum 3D7; assay type: functional, organism-based
Plasmodium falciparum [5] = assay: Antimalarial activity against chloroquine-resistant Plasmodium falciparum K1; assay type: functional, organism-based

SMILES | IC50 (Plasmodium falciparum [1]) | IC50 (Plasmodium falciparum [2]) | CC50 [3] | IC50 (Plasmodium falciparum [4]) | IC50 (Plasmodium falciparum [5])
COc1ccc2nccc(N/N=C/c3ccc(N(C)C)cc3)c2c1 | 104 nM | 83 nM | – | – | –
CCN(CC)CCCC(C)Nc1ccnc2cc(Cl)ccc12 (stereo not given) [CHLOROQUINE] | – | – | 9.7 µM | – | –
COc1ccc2nc3cc(Cl)ccc3c(N/N=C/c3ccc(CN4CCCC4)cc3)c2c1 | 137 nM | 97 nM | – | 112 nM | –
COc1ccc2nc3cc(Cl)ccc3c(N/N=C/c3ncc[nH]3)c2c1 | 30.8 nM | 62.6 nM | 5.1 µM | 1 nM | 4.5 nM
CCN(CC)Cc1ccc(/C=N/Nc2ccnc3ccc(OC)cc23)cc1 | 79 nM | 39.2 nM | – | 11 nM | 55.1 nM
COc1cccc2c(N/N=C/c3ccccc3)ccnc12 | 254 nM | 519 nM | – | 5700 nM | –
COc1ccc2nc3cc(Cl)ccc3c(N/N=C/c3ncc[nH]3)c2n1 | 26.9 nM | 72 nM | – | 283 nM | 198 nM
COc1ccc(/C=N/Nc2ccnc3ccc(OC)cc23)cc1 | 128 nM | 99 nM | – | – | –
COc1cccc2c(N/N=C/c3ccc(N(C)C)cc3)ccnc12 | 356 nM | 337 nM | – | – | –
Clc1ccc2c(N/N=C/c3ccc(CN4CCCC4)cc3)ccnc2c1 | 58.3 nM | 28.8 nM | 19.4 µM | 19.1 nM | 16.4 nM
COc1ccc(/C=N/Nc2ccnc3cc4c(cc23)OCO4)cc1 | 163 nM | 210 nM | – | 155 nM | 467 nM
